In assay [1] the test system is platelet aggregation induced by PAF. Briefly: Test 1: Inhibition of platelet aggregation induced by PAF. The format is cell-based, rabbit (male New Zealand albino). The note with it: rabbit platelet rich plasma, PAF (C18) 16 nM final, Born nephelometric technique. As to the method: Test 1: Inhibition of platelet aggregation induced by PAF.
The blood is obtained by cardiac puncture of male New Zealand albino rabbits (between 2 and 2.5 Kg of weight) and coagulation is prevented by adding 1 part of 3.16% sodium citrate dihydrate in 9 parts of blood. The platelet rich plasma (PRP) is prepared by blood centrifugation at 250×g for 10 min. at 4° C. and it is diluted with platelet poor plasma (PPP) by additional centrifugation at 3000×g for 10 min. The amount of platelets is adjusted to […]. The platelet aggregation induced by PAF (C18; prepared in our laboratory) (16 nM, final) is determined by the Born nephelometric technique (J. Physiol., 1962, 162, 67) using a aggregometer Chrono-log 500. The activities of the inhibitors are expressed as IC50, that is to say the concentration of the drug needed to inhibit the platelet aggregation by 50%.

The subject of assay [2] is hypotension induced by PAF. Put plainly: Test 2: Inhibition of the hypotensive effect induced by PAF in normotense rats. The format is in vivo, rat (male Sprage Dawley). The note with it: anesthetized male rats, compound 3 min before PAF 0.5 mcg/Kg i.v., text calls it IC50; for ED50: Rattus norvegicus, iv, read-out: CI50 (the source's name); for CI50: i.v. As to the method: Test 2 - Inhibition of the hypotensive effect induced by PAF in normotense rats.
Male Sprage Dawley rats, of 180-220 g of weight, anesthetized with sodium pentobarbital (50 mg/Kg, i.p. 1 mL/100 g) have been used. In order to measure the average arterial pressure, a polyethylene catheter is introduced into the carotid artery. The arterial pressure is recorded with the help of a transducer connected with a R611 Beckman polygraph. The tested compounds are administered through the femoral vein 3 min before the injection of PAF (0.5 mcg/Kg, i.v.).

In the next assay the test system is PAF-induced mortality. Briefly: Test 3: PAF-induced mortality in mice (p.o.). The format is in vivo, mouse (Swiss). The note with it: 1 hour before C18-PAF 100 mcg/kg plus propanolol 1 mg/kg i.v., inhibition of mortality, observed 2 hours after PAF; for ED50: Mus musculus, po, 2 h, read-out: ID50 (the source's name). As to the method: Finally, certain compounds of the present invention show an improved oral activity with regard to other chemically related PAF-antagonists reported in the literature, such as CV-6209, (disclosed in EP No. 157609) as shown by test 3:
Test 3 - PAF-induced mortality in mice (p.o.)
The experiment is carried out according to the method of Young et al. (Prostaglandins, 1985, 30, 545-551). Groups of 10 Swiss mice weighing 22-26 g are used. 100 mcg/kg of C18 -PAF plus 1 mg/kg of propanolol are intravenously administered in a lateral tail vein 1 hour after the oral administration of test compounds (0.1 mL/10 g). Every animal is observed 2 hours after the PAF injection. Percent inhibition of mortality due to treatments in comparison with control group are recorded. Results are given as ID50 values (mg/kg) in table 3.

Setting [3] is: Oryctolagus cuniculus, Platelet.

Structures are written as SMILES. Some results are limits rather than exact numbers.

Consider `CC[n+]1ccccc1CN(C(C)=O)C(=O)OCC1COC(OCCC(C)C)C1` (racemic) [Compound 14, (±)-cis,trans-1-ethyl-2-[N-acetyl-N-[[[(2-(3-methylbutoxy)tetrahydrofuran-4-yl)methoxy]carbonyl]amino]methyl]pyridinium iodide], for which the IC50 (usually the concentration needed to halve the response being measured) in assay [1] (setting [3]) was 700 nM. Also, in assay [2], the ED50 is 0.21 mg/kg.

The compound `CCCCCCCCCCCCCCCCCCOC1CC(COC(=O)N(Cc2cccc[n+]2C)C(C)=O)CO1` (racemic) [Compound 3, (±)-cis,trans-1-methyl-2-[N-acetyl-N-[[[(2-octadecyloxytetrahydrofuran-4-yl)methoxy]carbonyl]amino]methyl]pyridinium iodide] gave an IC50 in assay [1] (setting [3]) of 45 nM. For the same compound, the ED50 with PAF-induced mortality was > 100 mg/kg; in assay [2], 0.08 mg/kg.

Compound `CCCCCCCCCCCCCCCCCCOC1CC(COC(=O)N(Cc2cccc[n+]2CC)C(C)=O)CO1` (racemic) [Compound 4, (±)-cis,trans-1-ethyl-2-[N-acetyl-N-[[[(2-octadecyloxytetrahydrofuran-4-yl)methoxy]carbonyl]amino]methyl]pyridinium iodide] returned an IC50 in assay [1] (setting [3]) of 16 nM. Also, in the assay on PAF-induced mortality, the ED50 was 14 mg/kg. In assay [2], the CI50 was 0.053 mg/kg.

Compound `CCCCCCCCCCCCCCCCCCOC1CC(COC(=O)N(Cc2cccc[n+]2CC)C(C)=O)CO1` (racemic) [Compound 5, (±)-cis,trans-1-ethyl-2-[N-acetyl-N-[[[(2-octadecyloxytetrahydrofuran-4-yl)methoxy[carbonyl[amino]methyl]pyridinium chloride] came in with an IC50 in assay [1] of 12 nM. Also, the ID50 in the assay with PAF-induced mortality (120 min) worked out at 19 mg/kg. Further, in assay [2], the CI50 came to 0.024 mg/kg.

In the case of `CC[n+]1ccccc1CN(C(C)=O)C(=O)OCC1COC(OCCCc2ccccc2)C1` (racemic) [Compound 17, (±)-cis,trans-1-ethyl-2-[N-acetyl-N-[[[(2-(3-phenylpropoxy)tetrahydrofuran-4-yl)methoxy]carbonyl]amino]methyl]pyridinium iodide], it took 190 nM to reach half-maximal inhibition in assay [1] (setting [3]) (IC50). The ED50 in assay [2] was 0.12 mg/kg.

With `CCCCCCCCCCCCCCCCOC1CC(COC(=O)N(Cc2cccc[n+]2CC)C(C)=O)CO1` (racemic) [Compound 8, (±)-cis,trans-1-ethyl-2-[N-acetyl-N-[[[(2-hexadecyloxytetrahydrofuran-4-yl)methoxy]carbonyl]amino]methyl]pyridinium iodide], half-maximal inhibition in assay [1] (setting [3]) (IC50) was put at 12 nM. The ED50 with PAF-induced mortality was determined as 80 mg/kg; in assay [2], 0.01 mg/kg.

With `CCOC1CC(COC(=O)N(Cc2cccc[n+]2CC)C(C)=O)CO1` (racemic) [Compound 11, (±)-cis,trans-1-ethyl-2-[N-acetyl-N-[[[(2-ethoxytetrahydrofuran-4-yl)methoxy]carbonyl]amino]methyl]pyridinium iodide], the midpoint of inhibition in assay [1] (setting [3]), the IC50, lay at 2900 nM. In addition, the ED50 in assay [2] stood at 2.3 mg/kg.

Consider `CCCCCCCCCCCCCCCCCCNC(=O)OCC(COC(=O)N(Cc1cccc[n+]1CC)C(C)=O)OC` (stereo not shown) [CV-6209, reference compound], for which the ED50 with PAF-induced mortality is 70 mg/kg.
